Results from ChEMBL document CHEMBL1201862, “PubChem BioAssay data set” (2004).
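Compound exposure: 48 hours, 5 concentrations, 96-well plates. GI50 marks 50% less growth.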 Active and inactive are the calls of the source. Rule as the data show it: active = GI50 up to about 1.1 µM and inactive = higher. *1 amine or outer side, *2 acyl side, *3 side chain or, on linkers, in order; H or OH if unused. Where a SMILES comes first, the peptide text is derived from it. Square brackets hold non-standard residues; d marks the D form. Peptide text beside a SMILES is read from it. [ ]: non-standard residue; d: D form. The star is where a group is joined. * marks the point of attachment. ξ: configuration not given here. NMeY = CN[C@@H](Cc1ccc(O)cc1)C(=O)O; Ethylenediamine = C(CN[*:2])N[*:1]; ξNMeL = CNC(CC(C)C)C(=O)O; Cbz = O=C(OCc1ccccc1)*; Lac = C[C@H](O)C(=O)O; ξA = CC(N)C(=O)O

Legend:
Test in all cases: NCI-60 cell line screen, 48 h
ACHN = tested on: ACHN
CCRF-CEM = tested on: CCRF-CEM
DLD-1 = tested on: DLD-1
EKVX = tested on: EKVX
HCT-116 = tested on: HCT-116
K562 = tested on: K562
LOX IMVI = tested on: LOX IMVI
MOLT-4 = tested on: MOLT-4
NCI-H226 = tested on: NCI-H226
OVCAR-5 = tested on: OVCAR-5
SK-MEL-2 = tested on: SK-MEL-2
SN12C = tested on: SN12C
SW-620 = tested on: SW-620
U-251 = tested on: U-251
Hs-578T = tested on: Hs-578T
MCF7 = tested on: MCF7
MDA-N = tested on: MDA-N
NCI/ADR-RES = tested on: NCI/ADR-RES
SNB-75 = tested on: SNB-75

Compound | GI50 (ACHN) | GI50 (CCRF-CEM) | GI50 (DLD-1) | GI50 (EKVX) | GI50 (HCT-116) | GI50 (K562) | GI50 (LOX IMVI) | GI50 (MOLT-4) | GI50 (NCI-H226) | GI50 (OVCAR-5) | GI50 (SK-MEL-2) | GI50 (SN12C) | GI50 (SW-620) | GI50 (U-251) | GI50 (Hs-578T) | GI50 (MCF7) | GI50 (MDA-N) | GI50 (NCI/ADR-RES) | GI50 (SNB-75)
CCc1cccc(C(C)CC)c1/N=C(/NC(=O)c1ccccc1C(=O)N/C(=N/c1c(CC)cccc1C(C)CC)SC)SC (configuration not stated) | 36.1 µM (inactive) | 27.5 µM (inactive) | 58.5 µM (inactive) | 35.6 µM (inactive) | 34.4 µM (inactive) | 27.7 µM (inactive) | 31.3 µM (inactive) | 29.2 µM (inactive) | 17.7 µM (inactive) | 60.1 µM (inactive) | 40.9 µM (inactive) | 40.1 µM (inactive) | 31.9 µM (inactive) | 26.2 µM (inactive) |  |  |  |  | 
COc1ccc2c(c1O)-c1c(OC)c(OC)cc3c1[C@H](C2)[N+](C)(C)CC3 | > 100 µM (inactive) | > 100 µM (inactive) |  | > 100 µM (inactive) | > 100 µM (inactive) | 0.0409 µM (active) | > 100 µM (inactive) | > 100 µM (inactive) | > 100 µM (inactive) | > 100 µM (inactive) | > 100 µM (inactive) | > 100 µM (inactive) | > 100 µM (inactive) | > 100 µM (inactive) | > 100 µM (inactive) | > 100 µM (inactive) | > 100 µM (inactive) | > 100 µM (inactive) | > 100 µM (inactive)
C=CC(C)(C)C(=C)C(=O)N(C)c1ccccc1I | > 100 µM (inactive) | > 100 µM (inactive) |  | > 100 µM (inactive) | 84.9 µM (inactive) | > 100 µM (inactive) | > 100 µM (inactive) | 83.2 µM (inactive) | 95.7 µM (inactive) | > 100 µM (inactive) | > 100 µM (inactive) | > 100 µM (inactive) | > 100 µM (inactive) | > 100 µM (inactive) | 57.9 µM (inactive) | > 100 µM (inactive) | > 100 µM (inactive) | > 100 µM (inactive) | > 100 µM (inactive)
COC(=O)CNC(=O)/C=C/[C@H](O[Si](C)(C)C(C)(C)C)[C@H](/C=C/C(=O)NCC(=O)OC)O[Si](C)(C)C(C)(C)C | > 25 µM (inactive) | > 25 µM (inactive) |  | > 25 µM (inactive) | > 25 µM (inactive) | > 25 µM (inactive) | > 25 µM (inactive) | > 25 µM (inactive) | > 25 µM (inactive) | > 25 µM (inactive) | > 25 µM (inactive) | > 25 µM (inactive) | > 25 µM (inactive) | > 25 µM (inactive) | > 25 µM (inactive) | > 25 µM (inactive) | > 25 µM (inactive) | > 25 µM (inactive) | > 25 µM (inactive)
CCCC(C)n1c(C)nc2c1C(=O)c1ccccc1C2=O (configuration not stated) | 27.8 µM (inactive) | 30.3 µM (inactive) | 8.43 µM (inactive) | 43.6 µM (inactive) | 5.52 µM (inactive) | 8.57 µM (inactive) | 8.71 µM (inactive) | 18.5 µM (inactive) | 34.4 µM (inactive) |  | 20.7 µM (inactive) | 29.9 µM (inactive) | 37.7 µM (inactive) | 12.2 µM (inactive) |  |  |  |  | 19.5 µM (inactive)
CC(O)c1cc2c(s1)C(=O)c1sccc1C2=O (configuration not stated) | 0.15 µM (active) | 0.334 µM (active) |  | 0.254 µM (active) | 0.151 µM (active) | 0.353 µM (active) | 0.0247 µM (active) | 0.268 µM (active) | 0.207 µM (active) | 0.186 µM (active) | 0.0415 µM (active) | 0.112 µM (active) | 0.0453 µM (active) | 0.125 µM (active) | 0.0638 µM (active) | 0.152 µM (active) | 0.0198 µM (active) | 0.178 µM (active) | 0.0902 µM (active)
COc1ccc(OC)c(/N=C/c2cc(OC)c(OC)c(OC)c2)c1 | > 94.4 µM (inactive) | 22.9 µM (inactive) |  | > 52.6 µM (inactive) | > 100 µM (inactive) | > 68.1 µM (inactive) | > 100 µM (inactive) | 68.9 µM (inactive) | > 50.2 µM (inactive) | > 100 µM (inactive) | > 100 µM (inactive) | > 100 µM (inactive) | > 91.2 µM (inactive) | > 100 µM (inactive) | > 100 µM (inactive) | 62.4 µM (inactive) | 40.1 µM (inactive) | > 100 µM (inactive) | > 100 µM (inactive)
CCC1=C(c2ccc(OC)cc2)CC[C@@]2(CCNC2=O)[C@@H]1C | > 89.7 µM (inactive) | 57.7 µM (inactive) |  | 59.4 µM (inactive) | 76.2 µM (inactive) | 26.5 µM (inactive) | > 75 µM (inactive) | 24.9 µM (inactive) | > 100 µM (inactive) | > 100 µM (inactive) | > 90.8 µM (inactive) | > 100 µM (inactive) | > 100 µM (inactive) | > 100 µM (inactive) | > 52.2 µM (inactive) | 70.8 µM (inactive) | > 93.1 µM (inactive) | > 74.1 µM (inactive) | > 73.8 µM (inactive)
Cc1cc2c3c([nH]c2c2ccnc(C)c12)CCCC3 | 4.1 µM (inactive) | 2.5 µM (inactive) |  | 2.07 µM (inactive) | 1.82 µM (inactive) | 2.07 µM (inactive) | 1.96 µM (inactive) | 2.01 µM (inactive) | 12.1 µM (inactive) | 3.65 µM (inactive) | 1.62 µM (inactive) | 1.77 µM (inactive) | 1.91 µM (inactive) | 1.88 µM (inactive) | 1.92 µM (inactive) | 1.43 µM (inactive) | 1.78 µM (inactive) | 5.13 µM (inactive) | 1.87 µM (inactive)
COc1ccc(C[C@@H](C(=O)NCCNC(=O)C(CC(C)C)N(C)C(=O)[C@@H]2CCCN2C(=O)[C@H](C)O)N(C)C(=O)[C@@H]2CCCN2C(=O)[C@H](CC(C)C)NC(=O)C(C)NC(=O)OCc2ccccc2)cc1 (some centres not stated) (Cbz-[ξA]LP[NMeY](Me)-{Ethylenediamine-ξNMeL-Pro-Lac}) | > 100 µM (inactive) | 34.6 µM (inactive) |  | > 100 µM (inactive) | > 100 µM (inactive) | 40.6 µM (inactive) | 37 µM (inactive) | 29 µM (inactive) | > 100 µM (inactive) | > 100 µM (inactive) | > 100 µM (inactive) | > 100 µM (inactive) | > 100 µM (inactive) | > 100 µM (inactive) | 12.9 µM (inactive) | 43.9 µM (inactive) | 66.8 µM (inactive) | > 100 µM (inactive) | 89.5 µM (inactive)
CC(C)(c1ccccc1)c1ccc(Oc2ccc3c(c2)-c2nc-3nc3[nH]c(nc4nc(nc5[nH]c(n2)c2ccc(Oc6ccc(C(C)(C)c7ccccc7)cc6)cc52)-c2cc(Oc5ccc(C(C)(C)c6ccccc6)cc5)ccc2-4)c2ccc(Oc4ccc(C(C)(C)c5ccccc5)cc4)cc32)cc1 | > 100 µM (inactive) | > 100 µM (inactive) | > 100 µM (inactive) | > 100 µM (inactive) | > 100 µM (inactive) | > 100 µM (inactive) | > 100 µM (inactive) | > 100 µM (inactive) |  | > 100 µM (inactive) | > 100 µM (inactive) |  | > 100 µM (inactive) | 71.3 µM (inactive) |  |  |  |  | 27.8 µM (inactive)
CC1CC(=O)N(N(C)C)C(C#N)(C#N)C1(C#N)C#N (configuration not stated) | 15.4 µM (inactive) | 0.638 µM (active) |  | 23 µM (inactive) | 17 µM (inactive) | 2.81 µM (inactive) | 17 µM (inactive) | 1.87 µM (inactive) | 28.1 µM (inactive) | 23.9 µM (inactive) | 25.5 µM (inactive) | 21 µM (inactive) | 5.12 µM (inactive) | 20.9 µM (inactive) | 23.2 µM (inactive) | 22.4 µM (inactive) | 18.1 µM (inactive) | 21.7 µM (inactive) | > 35.6 µM (inactive)
O=C1CSC2(CC(/C=C/c3ccccc3O)=NN2c2cccc(S(=O)(=O)O)c2)N1c1nc2ccccc2s1 (configuration not stated) | 32.1 µM (inactive) | 14.6 µM (inactive) |  | 48.1 µM (inactive) | 38.3 µM (inactive) | 24.7 µM (inactive) | 17.3 µM (inactive) | 20.3 µM (inactive) | 22.2 µM (inactive) | 26.9 µM (inactive) | 34 µM (inactive) | 24.8 µM (inactive) | 37.3 µM (inactive) | 33.9 µM (inactive) | 47.3 µM (inactive) | 34.3 µM (inactive) | 38.3 µM (inactive) | 26.7 µM (inactive) | 90.8 µM (inactive)
COc1ccc(C[C@@H](C(=O)N[C@@H](C)C(N)=O)N(C)C(=O)[C@@H]2CCCN2C(=O)[C@H](CC(C)C)NC(=O)C(C)NC(=O)OCc2ccccc2)cc1 (some centres not stated) (Cbz-[ξA]LP[NMeY](Me)A-NH2) | > 100 µM (inactive) | > 100 µM (inactive) |  | > 100 µM (inactive) | > 100 µM (inactive) | 84.3 µM (inactive) | > 100 µM (inactive) | 35.5 µM (inactive) | > 100 µM (inactive) | > 100 µM (inactive) | > 100 µM (inactive) | > 100 µM (inactive) | > 100 µM (inactive) | > 100 µM (inactive) | 4.94 µM (inactive) | > 100 µM (inactive) | > 100 µM (inactive) | > 100 µM (inactive) | 66.1 µM (inactive)
COC(=O)CCC(C)[C@H]1CCC2C3C(C[C@H](OC(C)=O)[C@@]21C)[C@@]1(C)CCC2(C[C@H]1C[C@H]3OC(C)=O)OOC1(CCCCC1)OO2 (some centres not stated) | 11.2 µM (inactive) | 4.27 µM (inactive) |  | 4.04 µM (inactive) | 5.58 µM (inactive) | 10.3 µM (inactive) | 11.5 µM (inactive) | 17.2 µM (inactive) | 17.7 µM (inactive) | 43.5 µM (inactive) | 52.7 µM (inactive) | 36.6 µM (inactive) | 33.3 µM (inactive) | 12.7 µM (inactive) | 12 µM (inactive) | 22.3 µM (inactive) | 33.9 µM (inactive) | 49.2 µM (inactive) | 21.2 µM (inactive)
